Experimental data published in patent US8586603B2, “Aminotetraline derivatives” (priority 2009, dated 2013).

Legend:
[1] = Pig skin permeation from patch; type: in vitro ADME
Experimental: The in vitro permeation of compound 1 through pig skin from saturated solution (f1) and from a patch (f2) was investigated.
For this permeation experiments Franz diffusion cells with a diffusion area of 2.54 cm^2 and an acceptor volume of approx. 100 mL were used. For the study pig leg skin with a thickness of 300-500 μm was used. The permeation experiments were performed at a temperature of 32° C. and the acceptor medium (phosphate buffer pH 6.2) was slowly stirred. A patch of 2.54 cm^2 area comprising about 5 wt % of compound 1 in a hydrophobic adhesive layer was fixed on the skin surface. The experiments were performed in triplicate (n=3) over a period of 48 hours. During this time period six samples at different time points (after 2, 4, 6, 8, 24 and 48 hours) were taken. After each individual incubation period the concentration of the test compound in the acceptor medium was analysed by HPLC at 275 nm, 20° C., 2.0 mL/min in acetonitrile/water/TFA.

[2] = target: T1, porcine cortical p5-HT1a serotonin receptor (Sus scrofa, UniProt A0A4X1UTF5); experiment: Receptor binding assay, [3H]WAY100635 competition, porcine cortical membranes
T1 construct: membrane homogenates prepared from porcine striatal or cortical tissue; from tissue; host or cells: porcine cortex
T1 sequence (A0A4X1UTF5 1-422): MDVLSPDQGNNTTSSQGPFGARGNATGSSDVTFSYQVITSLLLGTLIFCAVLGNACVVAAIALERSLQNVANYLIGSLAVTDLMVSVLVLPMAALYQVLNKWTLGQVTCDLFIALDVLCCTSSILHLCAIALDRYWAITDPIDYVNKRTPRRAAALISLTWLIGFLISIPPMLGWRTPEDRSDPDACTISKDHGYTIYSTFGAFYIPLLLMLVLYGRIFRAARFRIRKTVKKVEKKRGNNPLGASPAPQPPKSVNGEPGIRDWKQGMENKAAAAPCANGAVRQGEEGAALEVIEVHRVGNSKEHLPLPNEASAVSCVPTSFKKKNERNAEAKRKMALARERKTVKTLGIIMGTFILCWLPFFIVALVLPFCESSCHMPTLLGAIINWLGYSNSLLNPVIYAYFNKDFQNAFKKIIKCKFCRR

[3] = test system: porcine cortical pα1 adrenergic receptor; experiment: Receptor binding assay, [3H]prazosin competition, porcine cortical membranes; details: vs p5-HT1a
[4] = target: T2, porcine cortical pα1 adrenergic receptor; experiment: as above; details: means of 2-8 individual experiments each done as triplicate
T2 construct: Ki pα1; other: means of 2-8 individual experiments each done as triplicate

[5] = Stability in PBS buffer pH 7.4 and SGF with 0.5% DMSO; type: physicochemical; details: 37° C.
Experimental: 5 μL DMSO stock solution of compound 1 (2 mg/mL) were diluted with […] PBS buffer pH 7.4 and 995 μL Simulated Gastric Fluid (SGF). After dilution the samples were immediately analysed by HPLC. After the initial injection, each sample solution was repeatedly injected over a period of approximately 12 hours.

[6] = target: T3, porcine cortical p5-HT2 serotonin receptor (Sus scrofa, UniProt P50129); experiment: Receptor binding assay, [3H]ketanserin competition, porcine cortical membranes
T3 construct: membrane homogenates prepared from porcine striatal or cortical tissue; from tissue; host or cells: porcine cortex

[7] = target: T4, human dopamine receptor subtype hD4.4 (Homo sapiens, UniProt P21917); experiment: Receptor binding assay, [3H]spiperone competition, CHO cell membranes
T4 construct: expressed in transfected cells; host or cells: CHO
T4 sequence (P21917 1-419): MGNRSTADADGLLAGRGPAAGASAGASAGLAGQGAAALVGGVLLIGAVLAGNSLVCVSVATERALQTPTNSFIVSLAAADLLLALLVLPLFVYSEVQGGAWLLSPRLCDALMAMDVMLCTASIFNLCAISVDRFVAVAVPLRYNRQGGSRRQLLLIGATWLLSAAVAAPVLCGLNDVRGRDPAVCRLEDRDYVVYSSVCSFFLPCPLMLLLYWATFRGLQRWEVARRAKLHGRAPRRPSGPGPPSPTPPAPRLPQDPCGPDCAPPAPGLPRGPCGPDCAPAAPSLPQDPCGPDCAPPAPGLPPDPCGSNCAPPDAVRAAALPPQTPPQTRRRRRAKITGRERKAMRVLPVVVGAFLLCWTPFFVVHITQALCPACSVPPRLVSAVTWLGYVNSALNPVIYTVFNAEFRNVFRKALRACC
Experimental: Receptor binding data were determined when performing competition binding assays with membrane preparations of cloned cells (stably transfected Chinese Hamster Ovary cells (CHO)) expressing the human receptors and the following radioligands: [^3H]spiperone at the human dopamine receptor subtypes hD2long, hD2short, D3, and hD4.4. […].
Selectivity ratios were calculated by division of the Ki values of the various compounds at the respective receptors through the Ki values at the 5HT1a receptor.

[8] = target: T5, porcine striatal pD1 dopamine receptor (Sus scrofa, UniProt P50130); experiment: Receptor binding assay, [3H]SCH 23390 competition, porcine striatal membranes
T5 construct: membrane homogenates prepared from porcine striatal or cortical tissue; from tissue; host or cells: porcine striatum

[9] = means of 2-8 individual experiments each done as triplicate

T3 sequence (P50129 whole entry): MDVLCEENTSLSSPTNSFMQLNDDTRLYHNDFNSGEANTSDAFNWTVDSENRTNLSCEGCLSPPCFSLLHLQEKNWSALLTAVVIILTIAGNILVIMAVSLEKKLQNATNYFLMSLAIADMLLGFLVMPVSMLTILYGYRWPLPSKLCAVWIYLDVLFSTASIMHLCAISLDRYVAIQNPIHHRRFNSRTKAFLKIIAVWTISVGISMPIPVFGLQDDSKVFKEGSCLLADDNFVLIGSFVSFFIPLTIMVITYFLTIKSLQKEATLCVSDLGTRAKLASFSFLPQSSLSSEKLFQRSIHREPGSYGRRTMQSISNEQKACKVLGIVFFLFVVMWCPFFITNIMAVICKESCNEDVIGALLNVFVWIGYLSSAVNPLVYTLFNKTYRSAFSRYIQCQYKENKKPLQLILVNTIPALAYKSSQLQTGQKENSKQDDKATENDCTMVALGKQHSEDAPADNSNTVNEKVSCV
T5 sequence (P50130 whole entry): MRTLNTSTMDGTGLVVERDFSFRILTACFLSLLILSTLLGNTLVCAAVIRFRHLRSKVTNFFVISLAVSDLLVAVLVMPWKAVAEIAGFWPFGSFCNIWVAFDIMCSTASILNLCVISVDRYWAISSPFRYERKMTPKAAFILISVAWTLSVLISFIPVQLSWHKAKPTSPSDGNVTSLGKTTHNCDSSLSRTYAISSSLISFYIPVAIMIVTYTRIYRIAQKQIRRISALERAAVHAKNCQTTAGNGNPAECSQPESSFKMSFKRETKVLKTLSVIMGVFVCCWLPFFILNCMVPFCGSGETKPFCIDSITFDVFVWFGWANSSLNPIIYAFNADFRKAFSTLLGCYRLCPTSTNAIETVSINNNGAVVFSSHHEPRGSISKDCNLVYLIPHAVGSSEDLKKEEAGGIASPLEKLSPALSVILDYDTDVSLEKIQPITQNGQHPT

## CCCN(CCc1cccs1)C1CCc2cccc(O)c2C1 (centres unmarked) [Compound 1, N-(8-Hydroxytetralin-2-yl)-N-propyl-N-[2-(2-thienyl)ethyl]amine]
[1]; in words
  penetration of skin in an in vitro skin model of transdermal penetration: able to penetrate skin
[1]; patch 2.54 cm^2, about 5 wt % compound 1 in hydrophobic adhesive layer, pig leg skin, 32° C., 48 hours
  average flux rate from patch: 4.0 μg/cm^2/h
[1]; patch, pig skin
  Measured Flux Rate (patch): 4.01 μg μg per cm^2/h
[1]; per 30 cm^2 patch/24 hrs
  Extrapolated daily flux rate: 2.88 mg
[2]; [9]
  Ki: 0.73 nM
[2]; reference receptor of the ratio (=1)
  selectivity ratio p5-HT1a: 1
[3]
  selectivity ratio pα1: 230
[4]
  Ki: 170 nM
other
  melting point: 99 °C
[5]; PBS buffer pH 7.4, 12 hours
  degradation (stability): No degradation
[5]; simulated gastric fluid (pH 1-2), 12 hours
  degradation (stability): No degradation
[6]; [9]
  Ki: 3600 nM
[6]; vs p5-HT1a
  selectivity ratio p5-HT2: 4 900
[7]; [9]
  Ki: 190 nM
[7]; vs p5-HT1a
  selectivity ratio hD4.4: 260
[8]; [9]
  Ki: 9400 nM
[8]; vs p5-HT1a
  selectivity ratio pD1: 13 000
